In PubChem BioAssay (NCI):
Several values for one entry are separate records, joined by “and”; a condition that tells them apart may be missing. Equal entries are not always repeated.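 In this assay, cells in 96-well plates receive the compound at five concentrations for 48 hours. Endpoints are linearly interpolated between the surrounding concentrations. GI50 marks 50% less growth. TGI: total growth inhibition.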

What was measured:
Assay in all cases: NCI anticancer screen, dose series, 48 h
A549 NSCLC = test system: A549 NSCLC
CAKI-1 renal = test system: CAKI-1 renal
DMS 114 small cell lung = test system: DMS 114 small cell lung
DMS 273 small cell lung = test system: DMS 273 small cell lung
HOP-92 NSCLC = test system: HOP-92 NSCLC
NCI-H460 lung = test system: NCI-H460 lung
OVCAR-3 ovarian = test system: OVCAR-3 ovarian
RPMI-8226 leukemia = test system: RPMI-8226 leukemia
SK-MEL-28 melanoma = test system: SK-MEL-28 melanoma
HS 578T breast = test system: HS 578T breast

Structure (SMILES) | TGI (A549 NSCLC) | TGI (CAKI-1 renal) | TGI (DMS 114 small cell lung) | TGI (DMS 273 small cell lung) | TGI (HOP-92 NSCLC) | TGI (NCI-H460 lung) | TGI (OVCAR-3 ovarian) | TGI (RPMI-8226 leukemia) | TGI (SK-MEL-28 melanoma) | GI50 (A549 NSCLC) | GI50 (CAKI-1 renal) | GI50 (DMS 114 small cell lung) [µM] | GI50 (HOP-92 NSCLC) | GI50 (HS 578T breast) [µM] | TGI (HS 578T breast) | GI50 (NCI-H460 lung) | GI50 (OVCAR-3 ovarian) | GI50 (RPMI-8226 leukemia) | GI50 (SK-MEL-28 melanoma) [µM] | GI50 (DMS 273 small cell lung) [µM]
CCCCC(C(=O)C(=O)Nc1ccccc1CC)C(=O)C(C)C (stereo not drawn) | > 100 µM | > 100 µM | > 100 µM | > 100 µM | > 100 µM | > 100 µM | > 100 µM | > 100 µM | – | – | – | – | – | – | – | – | – | – | – | –
CC(C)CCCC(C)C1CCC2C3CC([N+](=O)[O-])=C4CC(O)CCC4(C)C3CCC12C (stereo not drawn) | 47.1 µM | 66 µM | 45.7 µM | 27.2 µM | 46.6 µM | – | 49.4 µM | 46.9 µM | 35.2 µM | – | – | – | – | – | – | – | – | – | – | –
ON1CCc2c([nH]c3ccccc23)C1c1ccc(Cl)cc1 (stereo not drawn) | > 100 µM | – | > 100 µM | 97.4 µM | 41.1 µM | – | 74.5 µM | 84.3 µM | > 100 µM | – | – | – | – | – | – | – | – | – | – | –
O=C1NC(=O)C2C3C=CC(C12)C1C2C(=O)NC(=O)C2C31 (stereo not drawn) | 250 µM and > 1000 µM | 250 µM and > 1000 µM | 233 µM | 250 µM | 230 µM and > 1000 µM | 203 µM and > 1000 µM | 250 µM and > 1000 µM | 203 µM and > 1000 µM | 244 µM and > 1000 µM | 172 µM | 568 µM | > 60.5 | > 1000 µM | 419 | 250 µM and > 562 µM | 47 µM and 74.4 µM | > 909 µM | > 76.6 µM and 577 µM | 938 | –
COc1nc(N)nc2nc[nH]c12 | > 1000 µM | 410 µM and 522 µM and 730 µM | 500 µM and > 800 µM | 500 µM and > 800 µM | 480 µM and 800 µM and > 1000 µM | 500 µM and 800 µM and > 1000 µM | 500 µM and 800 µM and > 1000 µM | 500 µM and > 1000 µM | > 1000 µM | > 800 µM and 713 µM | 188 µM and 295 µM | > 800 | 511 µM and 596 µM | 603 | 500 µM and > 1000 µM | 674 µM and 588 µM | 744 µM and > 856 µM | 677 µM | > 1000 | > 800
COC1=CC(=O)C(O)=C(CC2(C)C(C)CCC3(C)C2CCCC3(C)C)C1=O (stereo not drawn) | 11.6 µM | 16.7 µM | 8.99 µM | 18.3 µM | 7.63 µM | 10.6 µM | 26.5 µM | 90.1 µM | 18.2 µM | – | – | – | – | – | – | – | – | – | – | –
C=C(C)c1nc(Oc2ccccc2)nc(Oc2ccccc2)n1 | 38.8 µM | 4.44 µM | 8.79 µM | 19.7 µM | 10.8 µM | 22.8 µM | 15.2 µM | 12 µM | 15.3 µM | – | – | – | – | – | 44.1 µM | – | – | – | – | –
CC(C)(C)c1ccc(OCCOCCOc2ccc(C(C)(C)C)cc2S(N)(=O)=O)c(S(N)(=O)=O)c1 | > 100 µM | > 100 µM | > 100 µM | > 100 µM | > 100 µM | > 100 µM | > 100 µM | > 100 µM | > 100 µM | – | – | – | – | – | – | – | – | – | – | –
CN(C)CCNC(=O)c1cccc2c1nc(-c1cccnc1)c1ccccc12 | 18.3 µM | 85.7 µM | 18.8 µM | 14.2 µM | 19.1 µM | 12.5 µM | 42 µM | – | 23.6 µM | – | – | – | – | – | – | – | – | – | – | –
O=C(CC1(O)C(=O)Nc2c(Cl)ccc(Cl)c21)c1ccc(Cl)cc1 (stereo not drawn) | > 100 µM | > 100 µM | 49.2 µM | 73.5 µM | 93.9 µM | 61.9 µM | 47.4 µM | 55.1 µM | > 100 µM | – | – | – | – | – | – | – | – | – | – | –
CCC12C=C(C(=O)OC)N3c4ccccc4C4CCN(CCC1)C2C43 (stereo not drawn) | > 100 µM | > 100 µM | > 100 µM | > 100 µM | > 100 µM | – | > 100 µM | > 100 µM | > 100 µM | – | – | – | – | – | – | – | – | – | – | –
N#CC1(CCCCl)CCCCC1 | > 100 µM | – | > 100 µM | > 100 µM | > 100 µM | > 100 µM | > 100 µM | – | > 100 µM | – | – | – | – | – | – | – | – | – | – | –
O=[N+]([O-])c1ccc(/C=C/c2ccc(/C=C/c3ccc([N+](=O)[O-])cc3[N+](=O)[O-])cc2)c([N+](=O)[O-])c1 | > 100 µM | > 100 µM | > 100 µM | > 100 µM | – | > 100 µM | > 100 µM | > 100 µM | > 100 µM | – | – | – | – | – | – | – | – | – | – | –
Cc1ccccc1NC(=O)C1C(=O)N(c2ccccc2C)C(=O)/C1=N\NC(N)=O (stereo not drawn) | > 100 µM | > 100 µM | > 100 µM | > 100 µM | > 100 µM | > 100 µM | > 100 µM | – | > 100 µM | – | – | – | – | – | – | – | – | – | – | –
N#Cc1c(CC(=O)O)cc(=O)n2c1[nH]c1ccccc12 | > 100 µM | > 100 µM | > 100 µM | > 100 µM | – | > 100 µM | > 100 µM | > 100 µM | > 100 µM | – | – | – | – | – | – | – | – | – | – | –
O=C(CC1(O)C(=O)Nc2c(Cl)cc(Cl)cc21)c1cccc([N+](=O)[O-])c1 (stereo not drawn) | 98.9 µM | > 93.2 µM | 43.3 µM | > 100 µM | 80.9 µM | > 100 µM | 58.5 µM | 58.2 µM | > 80.6 µM | – | – | – | – | – | 94.9 µM | – | – | – | – | –
O=C1c2ccccc2C2(O)N(c3ccccc3)C(=S)N(c3ccccc3)C12O (stereo not drawn) | > 100 µM | > 100 µM | > 100 µM | > 100 µM | – | > 100 µM | > 100 µM | > 100 µM | > 100 µM | – | – | – | – | – | – | – | – | – | – | –
CCCCCNC(=O)CCCCCCCCCCCNC(=O)CCCCCCCCCCN1C=CC(=CC=C2C=CC(=O)C=C2)C=C1 | > 100 µM | > 100 µM | > 100 µM | > 100 µM | 55.1 µM | > 100 µM | > 100 µM | > 100 µM | > 100 µM | – | – | – | – | – | – | – | – | – | – | –
